Measured values published in patent US4279915A, “Method of treatment using new leurosine derivatives” (priority 1973, dated 1981).

Assays:
Harding Passey melanoma = conditions: cited from earlier work
cancer = conditions: animal tests and human therapy; cited from earlier work
VX-2 rabbit epitheloma = conditions: cited from earlier work
rhabdomyo-sarcoma = conditions: cited from earlier work
[1] = acute toxicity in Swiss mice; type: in vivo, mouse; conditions: mouse, in vivo, Swiss mice
From the text: ACUTE TOXICITY IN SWISS MICE
Table III lists the comparative toxicological data concerning Vincristine, Vinblastine and F-leurosine. The new analogue is approximately 7 times less toxic than Vincristine and 4 times less toxic than Vinblastine in acute rodent experiments.

Compound | treatability with hitherto known cytostatics (Harding Passey melanoma) | activity relative to vinblastine (cancer) | treatability with hitherto known cytostatics (VX-2 rabbit epitheloma) | treatability with hitherto known cytostatics (rhabdomyo-sarcoma) | LD50 ([1]; ip, 1 x i.p.) | LD50 ([1]; iv, 1 x i.v.)
CC[C@]1(O)C[C@H]2CN(CCc3c([nH]c4ccccc34)[C@@](C(=O)OC)(c3cc4c(cc3OC)N(C=O)[C@H]3[C@@](O)(C(=O)OC)[C@H](OC(C)=O)[C@]5(CC)C=CCN6CC[C@]43[C@@H]65)C2)C1 [Vincristine, leurocristine] | could hardly be treated, if at all | more active both in animal tests, and, primarily, in human therapy | could hardly be treated, if at all | could hardly be treated, if at all | 4 mg/kg | 3 mg/kg
CC[C@]1(O)C[C@@H]2CN(CCc3c([nH]c4ccccc34)[C@@](C(=O)OC)(c3cc4c(cc3OC)N(C)[C@H]3[C@@](O)(C(=O)OC)[C@H](OC(C)=O)[C@]5(CC)C=CCN6CC[C@]43[C@@H]65)C2)C1 [Vinblastine, vincaleucoblastine] | could hardly be treated, if at all | – | could hardly be treated, if at all | could hardly be treated, if at all | 7.6 mg/kg | 15 mg/kg
